In the kinase profiling compilation of Christmann-Franck et al. (2016):

Assays:
Assay in all cases: KINOMEscan competition binding
Details in all cases: compound 10.0 µM
[1] = system: BMX (human), P51813 [V600E]
[2] = target: RIOK1 (human) (UniProt Q9BRS2)
[3] = target: CLK2 (human) (UniProt P49760)
[4] = target: YSK4 (human) (UniProt Q56UN5)
[5] = target: MAPK15 (human) (UniProt Q8TD08)
[6] = target: PRKCI (human) (UniProt P41743)
[7] = target: MAP2K5 (human) (UniProt Q13163)
[8] = target: MTOR (human) (UniProt P42345)
[9] = target: MAP3K9 (human) (UniProt P80192)
[10] = target: RAF1 (human) (UniProt P04049)
[11] = target: CDK14 (human) (UniProt O94921)
[12] = system: LRRK2 (human), Q5S007 [G2019S]
[13] = target: CHEK2 (human) (UniProt O96017)
CHEK2 (human), sequence (O96017 whole entry, looked up): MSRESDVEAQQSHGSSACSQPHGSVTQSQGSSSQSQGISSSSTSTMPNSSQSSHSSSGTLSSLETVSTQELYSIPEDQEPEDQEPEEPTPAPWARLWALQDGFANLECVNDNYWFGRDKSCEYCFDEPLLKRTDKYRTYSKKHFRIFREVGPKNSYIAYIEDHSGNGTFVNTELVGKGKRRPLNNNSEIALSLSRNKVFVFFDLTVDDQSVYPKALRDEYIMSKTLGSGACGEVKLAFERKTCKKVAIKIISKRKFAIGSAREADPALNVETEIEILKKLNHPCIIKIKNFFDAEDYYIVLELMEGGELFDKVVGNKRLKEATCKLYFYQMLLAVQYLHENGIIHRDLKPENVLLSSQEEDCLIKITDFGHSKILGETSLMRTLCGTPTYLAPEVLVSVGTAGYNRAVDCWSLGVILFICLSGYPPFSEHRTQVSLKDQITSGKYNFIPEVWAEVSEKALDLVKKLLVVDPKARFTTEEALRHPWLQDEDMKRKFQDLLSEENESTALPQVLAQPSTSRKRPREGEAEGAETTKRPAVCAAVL

[14] = target: CDK4 CCND3 (human) (UniProt P11802+P30281)
[15] = target: TYK2 JH1 catalytic (human) (UniProt P29597)
[16] = target: HUNK (human) (UniProt P57058)
[17] = target: MAPK11 (human) (UniProt Q15759)
[18] = target: PHKG1 (human) (UniProt Q16816)
[19] = target: DCLK2 (human) (UniProt Q8N568)
[20] = target: BMPR1B (human) (UniProt O00238)
[21] = target: PRKG1 (human) (UniProt Q13976)
[22] = target: EPHB2 (human) (UniProt P29323)
[23] = target: TYRO3 (human) (UniProt Q06418)
[24] = target: STK11 (human) (UniProt Q15831)
[25] = target: RPS6KA2 KD1 (human) (UniProt Q15349)
[26] = target: PLK1 (human) (UniProt P53350)
PLK1 (human), sequence (P53350 whole entry, looked up): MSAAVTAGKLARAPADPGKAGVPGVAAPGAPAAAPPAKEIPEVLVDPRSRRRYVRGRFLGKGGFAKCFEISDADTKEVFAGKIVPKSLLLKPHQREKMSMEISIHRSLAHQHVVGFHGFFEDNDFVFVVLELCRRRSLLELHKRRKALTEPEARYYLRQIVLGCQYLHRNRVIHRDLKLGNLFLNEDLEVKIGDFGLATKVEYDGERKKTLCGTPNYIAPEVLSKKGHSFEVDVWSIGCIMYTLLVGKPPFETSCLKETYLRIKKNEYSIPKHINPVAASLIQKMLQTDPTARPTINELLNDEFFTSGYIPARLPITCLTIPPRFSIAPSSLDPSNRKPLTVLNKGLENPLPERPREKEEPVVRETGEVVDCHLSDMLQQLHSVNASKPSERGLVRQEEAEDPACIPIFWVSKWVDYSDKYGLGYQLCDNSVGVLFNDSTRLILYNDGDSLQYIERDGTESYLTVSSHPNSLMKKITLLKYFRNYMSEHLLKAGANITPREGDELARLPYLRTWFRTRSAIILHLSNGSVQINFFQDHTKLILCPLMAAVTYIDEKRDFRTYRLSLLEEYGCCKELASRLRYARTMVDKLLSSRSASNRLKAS

[27] = target: ERBB3 (human) (UniProt P21860)
ERBB3 (human), sequence (P21860 whole entry, looked up): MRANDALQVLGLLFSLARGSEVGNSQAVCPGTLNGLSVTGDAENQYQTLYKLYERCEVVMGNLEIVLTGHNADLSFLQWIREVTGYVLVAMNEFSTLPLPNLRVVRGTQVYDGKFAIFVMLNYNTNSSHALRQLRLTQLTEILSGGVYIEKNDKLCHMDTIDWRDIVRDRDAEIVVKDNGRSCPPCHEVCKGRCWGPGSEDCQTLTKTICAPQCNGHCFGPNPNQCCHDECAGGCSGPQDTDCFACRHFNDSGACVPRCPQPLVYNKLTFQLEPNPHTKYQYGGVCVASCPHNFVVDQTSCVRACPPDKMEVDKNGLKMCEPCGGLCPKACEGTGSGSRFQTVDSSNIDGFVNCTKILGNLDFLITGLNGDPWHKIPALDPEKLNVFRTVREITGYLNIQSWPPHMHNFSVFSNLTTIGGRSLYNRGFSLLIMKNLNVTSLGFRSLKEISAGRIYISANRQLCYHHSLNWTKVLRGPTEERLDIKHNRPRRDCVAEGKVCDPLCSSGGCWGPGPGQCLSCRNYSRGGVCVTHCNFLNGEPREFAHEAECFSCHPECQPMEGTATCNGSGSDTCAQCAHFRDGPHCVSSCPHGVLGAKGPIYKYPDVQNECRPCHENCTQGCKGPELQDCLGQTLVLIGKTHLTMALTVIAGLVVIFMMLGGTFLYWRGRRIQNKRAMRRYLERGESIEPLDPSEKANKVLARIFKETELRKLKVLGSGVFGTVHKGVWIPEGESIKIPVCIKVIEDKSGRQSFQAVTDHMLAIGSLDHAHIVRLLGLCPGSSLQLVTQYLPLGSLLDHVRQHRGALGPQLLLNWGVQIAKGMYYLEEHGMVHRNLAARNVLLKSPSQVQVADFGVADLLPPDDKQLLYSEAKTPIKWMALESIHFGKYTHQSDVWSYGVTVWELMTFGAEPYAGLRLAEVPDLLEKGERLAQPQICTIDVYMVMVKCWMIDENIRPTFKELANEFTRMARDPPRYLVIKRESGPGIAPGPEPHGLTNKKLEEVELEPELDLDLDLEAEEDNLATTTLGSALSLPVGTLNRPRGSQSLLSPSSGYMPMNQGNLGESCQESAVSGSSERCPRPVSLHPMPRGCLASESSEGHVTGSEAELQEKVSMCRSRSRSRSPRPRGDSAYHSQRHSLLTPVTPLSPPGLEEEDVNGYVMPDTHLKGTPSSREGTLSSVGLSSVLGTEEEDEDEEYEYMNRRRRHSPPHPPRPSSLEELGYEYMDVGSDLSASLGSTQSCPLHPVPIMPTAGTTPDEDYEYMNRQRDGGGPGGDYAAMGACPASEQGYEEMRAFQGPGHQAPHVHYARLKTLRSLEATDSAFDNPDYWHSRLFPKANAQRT

[28] = target: CSNK1G3 (human) (UniProt Q9Y6M4)
CSNK1G3 (human), sequence (Q9Y6M4 whole entry, looked up): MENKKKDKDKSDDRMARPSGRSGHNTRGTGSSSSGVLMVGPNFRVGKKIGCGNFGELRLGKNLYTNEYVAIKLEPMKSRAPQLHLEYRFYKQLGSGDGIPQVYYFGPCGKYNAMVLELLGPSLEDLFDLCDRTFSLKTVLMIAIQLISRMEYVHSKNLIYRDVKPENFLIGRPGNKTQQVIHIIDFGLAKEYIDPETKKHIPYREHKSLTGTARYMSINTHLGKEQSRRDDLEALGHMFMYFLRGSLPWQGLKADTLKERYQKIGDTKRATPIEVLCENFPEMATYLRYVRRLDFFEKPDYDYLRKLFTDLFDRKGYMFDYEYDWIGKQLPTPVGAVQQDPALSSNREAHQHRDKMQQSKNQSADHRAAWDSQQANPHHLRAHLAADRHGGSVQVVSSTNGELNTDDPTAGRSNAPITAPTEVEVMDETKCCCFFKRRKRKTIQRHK

[29] = target: DAPK3 (human) (UniProt O43293)
[30] = target: PIP5K1A (human) (UniProt Q99755)
[31] = target: EIF2AK2 (human) (UniProt P19525)
[32] = target: CAMK2A (human) (UniProt Q9UQM7)
[33] = target: FLT3 (human) (UniProt P36888)
[34] = target: PRKAA2 (human) (UniProt P54646)
[35] = target: CAMK1D (human) (UniProt Q8IU85)
[36] = target: FGFR3 (human) (UniProt P22607)
[37] = target: LCK (human) (UniProt P06239)
[38] = target: IGF1R (human) (UniProt P08069)
IGF1R (human), sequence (P08069 whole entry, looked up): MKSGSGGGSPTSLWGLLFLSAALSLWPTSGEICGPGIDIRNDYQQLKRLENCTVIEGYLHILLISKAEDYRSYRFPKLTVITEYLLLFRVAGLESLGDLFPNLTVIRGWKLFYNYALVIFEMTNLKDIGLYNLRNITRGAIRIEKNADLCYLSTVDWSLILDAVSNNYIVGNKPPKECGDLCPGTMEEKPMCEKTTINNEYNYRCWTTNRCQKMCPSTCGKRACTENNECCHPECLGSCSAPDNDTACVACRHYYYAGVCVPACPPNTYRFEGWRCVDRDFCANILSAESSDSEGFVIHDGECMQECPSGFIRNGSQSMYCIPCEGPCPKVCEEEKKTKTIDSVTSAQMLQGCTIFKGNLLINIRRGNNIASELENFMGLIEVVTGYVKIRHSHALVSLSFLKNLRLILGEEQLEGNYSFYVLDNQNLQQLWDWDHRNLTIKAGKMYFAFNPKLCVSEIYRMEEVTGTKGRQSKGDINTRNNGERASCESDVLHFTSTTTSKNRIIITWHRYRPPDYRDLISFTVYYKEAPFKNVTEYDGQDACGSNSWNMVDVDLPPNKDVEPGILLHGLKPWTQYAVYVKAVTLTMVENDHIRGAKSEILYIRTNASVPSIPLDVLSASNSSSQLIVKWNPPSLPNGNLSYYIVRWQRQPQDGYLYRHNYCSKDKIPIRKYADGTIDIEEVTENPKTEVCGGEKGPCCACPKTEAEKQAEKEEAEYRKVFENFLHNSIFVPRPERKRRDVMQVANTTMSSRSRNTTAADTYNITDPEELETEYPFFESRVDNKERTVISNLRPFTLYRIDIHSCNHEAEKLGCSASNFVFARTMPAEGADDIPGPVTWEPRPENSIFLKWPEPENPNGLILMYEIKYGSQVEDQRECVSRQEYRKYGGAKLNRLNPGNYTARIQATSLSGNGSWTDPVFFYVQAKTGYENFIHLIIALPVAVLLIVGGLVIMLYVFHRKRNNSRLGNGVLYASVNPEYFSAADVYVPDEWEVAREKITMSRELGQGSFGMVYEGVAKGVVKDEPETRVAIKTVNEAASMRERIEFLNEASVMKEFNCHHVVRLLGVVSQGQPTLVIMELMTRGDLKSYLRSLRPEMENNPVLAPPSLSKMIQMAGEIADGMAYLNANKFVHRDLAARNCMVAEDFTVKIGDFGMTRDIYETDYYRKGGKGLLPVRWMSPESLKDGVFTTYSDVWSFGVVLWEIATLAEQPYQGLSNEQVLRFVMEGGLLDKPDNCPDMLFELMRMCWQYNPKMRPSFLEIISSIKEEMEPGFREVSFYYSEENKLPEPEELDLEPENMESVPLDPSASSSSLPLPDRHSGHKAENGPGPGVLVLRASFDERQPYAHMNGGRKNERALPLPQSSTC

[39] = target: MAPK10 (human) (UniProt P53779)
[40] = system: EGFR (human), P00533 [A750P; 747-749 del]

BMX (human), P51813 [V600E], sequence (P51813 whole entry, looked up, stated change not applied): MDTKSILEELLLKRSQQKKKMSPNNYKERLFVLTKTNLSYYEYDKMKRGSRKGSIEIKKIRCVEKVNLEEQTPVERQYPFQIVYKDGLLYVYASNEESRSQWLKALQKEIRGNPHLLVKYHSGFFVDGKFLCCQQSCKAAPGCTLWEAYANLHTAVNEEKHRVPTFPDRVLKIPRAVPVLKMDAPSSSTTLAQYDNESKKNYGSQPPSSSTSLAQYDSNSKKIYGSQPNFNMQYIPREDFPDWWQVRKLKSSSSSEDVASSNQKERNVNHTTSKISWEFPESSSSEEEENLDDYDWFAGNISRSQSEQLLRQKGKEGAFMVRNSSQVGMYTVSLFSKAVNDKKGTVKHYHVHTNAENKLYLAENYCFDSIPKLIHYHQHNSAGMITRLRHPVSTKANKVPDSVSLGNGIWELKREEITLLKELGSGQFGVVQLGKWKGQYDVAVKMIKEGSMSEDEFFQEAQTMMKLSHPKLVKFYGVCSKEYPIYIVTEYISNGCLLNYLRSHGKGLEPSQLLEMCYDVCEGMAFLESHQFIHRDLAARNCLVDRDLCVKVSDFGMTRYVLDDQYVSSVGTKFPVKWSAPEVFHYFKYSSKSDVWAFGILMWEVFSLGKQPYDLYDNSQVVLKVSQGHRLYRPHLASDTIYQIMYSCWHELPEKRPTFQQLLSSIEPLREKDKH

Compound	kinase still bound, per cent of control [1] [%]	kinase still bound, per cent of control [2] [%]	kinase still bound, per cent of control [3] [%]	kinase still bound, per cent of control [4] [%]	kinase still bound, per cent of control [5] [%]	kinase still bound, per cent of control [6] [%]	kinase still bound, per cent of control [7] [%]	kinase still bound, per cent of control [8] [%]	kinase still bound, per cent of control [9] [%]	kinase still bound, per cent of control [10] [%]	kinase still bound, per cent of control [11] [%]	kinase still bound, per cent of control [12] [%]	kinase still bound, per cent of control [13] [%]	kinase still bound, per cent of control [14] [%]	kinase still bound, per cent of control [15] [%]	kinase still bound, per cent of control [16] [%]	kinase still bound, per cent of control [17] [%]	kinase still bound, per cent of control [18] [%]	kinase still bound, per cent of control [19] [%]	kinase still bound, per cent of control [20] [%]	further results
N#C/C(=C1/Nc2ccccc2S1)c1ccnc(NCCc2cccnc2)n1	6.8	30	3.7	3.2	73	80	0.8	34	74	100	100	74	94	49	22	92	85	100	100	18	kinase still bound, per cent of control [21]: 100%; kinase still bound, per cent of control [22]: 100%; kinase still bound, per cent of control [23]: 100%; kinase still bound, per cent of control [24]: 77%; kinase still bound, per cent of control [25]: 100%; kinase still bound, per cent of control [26]: 72%; kinase still bound, per cent of control [27]: 36%; kinase still bound, per cent of control [28]: 100%; kinase still bound, per cent of control [29]: 45%; kinase still bound, per cent of control [30]: 18%; kinase still bound, per cent of control [31]: 72%; kinase still bound, per cent of control [32]: 46%; kinase still bound, per cent of control [33]: 100%; kinase still bound, per cent of control [34]: 100%; kinase still bound, per cent of control [35]: 70%; kinase still bound, per cent of control [36]: 92%; kinase still bound, per cent of control [37]: 100%; kinase still bound, per cent of control [38]: 100%
O=c1[nH]c2ccccc2n1C1CCN(Cc2ccc(-c3nc4cc5[nH]cnc5cc4nc3-c3ccccc3)cc2)CC1	84	76	90	75	100	79	72	100	96	99	100	100	100	100	66	72	95	100	92	88	kinase still bound, per cent of control [39]: 71%; kinase still bound, per cent of control [40]: 77%; kinase still bound, per cent of control [21]: 88%; kinase still bound, per cent of control [22]: 72%; kinase still bound, per cent of control [23]: 73%; kinase still bound, per cent of control [24]: 94%; kinase still bound, per cent of control [25]: 51%; kinase still bound, per cent of control [26]: 93%; kinase still bound, per cent of control [27]: 100%; kinase still bound, per cent of control [28]: 93%; kinase still bound, per cent of control [29]: 85%; kinase still bound, per cent of control [30]: 88%; kinase still bound, per cent of control [31]: 100%; kinase still bound, per cent of control [32]: 98%; kinase still bound, per cent of control [34]: 95%; kinase still bound, per cent of control [35]: 76%; kinase still bound, per cent of control [36]: 92%; kinase still bound, per cent of control [37]: 72%; kinase still bound, per cent of control [38]: 100%
CCc1nc(-c2cccc(C)c2)c(-c2ccnc(NC(=O)c3ccccc3)c2)s1	23	100	61	64	100	100	5.2	100	94	34	99	100	80	92	100	15	0	100	98	100	kinase still bound, per cent of control [39]: 0%; kinase still bound, per cent of control [21]: 100%; kinase still bound, per cent of control [22]: 80%; kinase still bound, per cent of control [23]: 83%; kinase still bound, per cent of control [24]: 96%; kinase still bound, per cent of control [25]: 100%; kinase still bound, per cent of control [26]: 100%; kinase still bound, per cent of control [27]: 49%; kinase still bound, per cent of control [28]: 17%; kinase still bound, per cent of control [29]: 83%; kinase still bound, per cent of control [30]: 100%; kinase still bound, per cent of control [31]: 94%; kinase still bound, per cent of control [32]: 89%; kinase still bound, per cent of control [33]: 17%; kinase still bound, per cent of control [34]: 100%; kinase still bound, per cent of control [35]: 100%; kinase still bound, per cent of control [36]: 86%; kinase still bound, per cent of control [37]: 41%; kinase still bound, per cent of control [38]: 100%
